# Laboratory results from patent publication US12037327B2, “Compounds and methods targeting GPER for treatment of diseases associated with calcium” (Saint Louis University, priority 2018, dated 2024).
# Entries after “also recorded” stand apart in the source; their conditions may differ.
# How the values were obtained:
# GPER [1] = molecular target: T1, GPER (Homo sapiens, UniProt Q99527); experiment: cAMP competition study with selective GPER antagonist in HL-60 cells; assay type: cell-based; details: EC50 of G-36 plus 1 μM agonist, compared to agonist alone at 1 μM
# T1 construct: siRNA was used to knock-down expression of GPER; endogenous in cells; host or cells: HL-60 (human myelocytic leukemia) cells
# Experimental: In cAMP competition studies HL-60 cells were grown in 10% charcoal-stripped RPMI media for 72 hours prior to assays. Cells were centrifuged and counted with a hemocytometer from Hausser Scientific (Horsham, PA). The total number of cells needed to complete the assay was determined based upon 8,000 cells/well. The determined number of cells was diluted in 5:1 (5×) stimulation buffer contain 500 μM of 3-isobutyl-1-methylxanthine (IBMX) (Sigma Aldrich, Saint Louis, MO). […] Following the incubation period, 2 μL of various concentrations of compound (5×) were added. […] The plate was sealed and incubated at 37° C. for 10 minutes. After 10 minutes a 4:1 ratio of lysis buffer to donor/acceptor were individually prepared and 5 μL of lysis buffer/cAMP-d2 (acceptor) and 5 μL of lysis buffer/monocolonal anti-cAMP Eu3+ cryptate (donor) were added to all wells. The assay plate was sealed and incubated at room temperature for 30 minutes before being read at λex 314 nm and λem 665 nm/λem 620.
# GPER [2] = molecular target: T1, GPER; experiment: calcium mobilization assay, agonists tested against EC50 of GPER antagonist G-36; assay type: cell-based; details: for change in calcium efflux in response to G-36: agonist at 100 nM against EC50 of G-36, normalized; for calcium signal when antagonized with G-36: concentration not given
# Experimental: Each signal was normalized to the baseline signaling of G-36 and the maximum signal achieved by the specific agonist. Results are shown at 100 nM.
# Calcium mobilization signal was assessed with the use of 0.1% pluronic acid and 5 μM Indo-1AM, a ratiometric dye. The EC50 values were determined based upon triplicate runs on triplicate plates. […] Cyclic AMP formation through the Gi/o-pathway was monitored utilizing a homogenous time-resolved fluorescence assay purchased from CisBio. A triplicate was performed and an EC50 value was calculated. […] The EC50 values were determined based upon triplicate runs on a triplicate plates. To confirm that calcium efflux originated from activation of the G protein-coupled estrogen receptor (GPER), a known selective antagonist, G-36 was used to antagonize the signal. […] Additional data can be found in FIG. 9. […] Without wishing to be bound by any theory, it is believed that within the new functionalization of the scaffold the lone pair on the oxygen of furfuran ring system and the nitrogen on pyridinyl ring system work to activate the receptor. […] Based upon neurite outgrowth studies and without wishing to be bound by any theory, it is believed that the compounds may aid in the elongation and connectivity of neurons. This has implication in a variety of neurodegenerative diseases, such as Alzheimer's disease and Parkinson's disease, but also psychiatric illnesses including Austism and Schizophrenia.
# [3] = system: E18 embryonic rat cortical neurons; experiment: neurite outgrowth in E18 embryonic rat neurons; assay type: cell-based; details: for neurite outgrowth with GPER antagonist G-15: 100 nM agonist plus 100 nM G-15; for neurite outgrowth: 100 nM agonist, 72 hours, compared to vehicle control
# GPER [4] = molecular target: T1, GPER; experiment: calcium mobilization after siRNA knock down of GPER in HL-60 cells; assay type: cell-based; details: HL-60 cells not treated with siRNA; 1 μM
# [5] = molecular target: T2, G protein-coupled estrogen receptor (GPER) (Homo sapiens, UniProt Q99527); experiment: calcium mobilization assay in HL-60 cells (Indo-1AM); assay type: cell-based; details: triplicate runs on triplicate plates, read-out: EC50 (Ca^2+)
# T2 construct: siRNA was used to knock-down expression of GPER; endogenous in cells; host or cells: HL-60 (human myelocytic leukemia) cells
# Experimental: For the calcium mobilization studies, Human Myelocytic Leukemia (HL-60) cells were grown in phenol red free media containing 10% activated fetal bovine serum (FBS), 1% Pen-Strep, and 1% Glutamax. Cells were grown to no more than 1×10^6 cells/mL to prevent differentiation before being split. Prior to assay cells were transferred to phenol red free media containing charcoal-stripped FBS. On the day of the assay cells were centrifuged down at 16.4 G for 5 minutes and washed with 50:1 HBSS/HEPES. Cells were resuspended at 1×10^7 cells/mL in 50:1 HBSS/HEPES. To the resuspended cells, […] pluronic acid and 5 uM of fluorescent calcium indicator, Indo-1AM, were added. The dye solution was incubated for 0.5 hrs at room temperature with rocking. After 30 minutes cells were spun down, and resuspended in 50:1 HBSS/HEPES. Cells were placed on ice for at least 5 minutes and then resuspended in 8.5 mL of 50:1 HBSS/HEPES for agonism assays. For agonism assays 160 μL of cell suspension were added to a 96-well plate and were incubated at […] for 20 minutes in a FlexStation® 3 plate reader (Molecular Devices). Inside the plate reader, 40 μL of agonist were added to each well and excited with 350 nm and read at emissions of 405 nm and 490 nm.
# (§1) Calcium mobilization signal was assessed with the use of 0.1% pluronic acid and 5 μM Indo-1AM, a ratiometric dye. The EC50 values were determined based upon triplicate runs on triplicate plates. […] Cyclic AMP formation through the Gi/o-pathway was monitored utilizing a homogenous time-resolved fluorescence assay purchased from CisBio. A triplicate was performed and an EC50 value was calculated. […] The EC50 values were determined based upon triplicate runs on a triplicate plates.
# [6] = molecular target: T2, G protein-coupled estrogen receptor (GPER); experiment: HTRF cAMP formation assay in HL-60 cells; assay type: cell-based; details: values with * unexplained
# Experimental: For cAMP formation studies to determine potentcy, a homogeneous time resolved fluorescence (HTRF®) components for cAMP was purchased by CisBio (Bedford, MA). HL-60 cells were grown in 10% charcoal-stripped RPMI media for 72 hours prior to assays. Cells were centrifuged and counted with a hemocytometer from Hausser Scientific (Horsham, PA). The total number of cells needed to complete the assay was determined based upon 8,000 cells/well. The determined number of cells was diluted in 5:1 (5×) stimulation buffer contain 500 μM of 3-isobutyl-1-methylxanthine (IBMX) (Sigma Aldrich, Saint Louis, MO). To an HTRF 96-well low volume white plate from CisBio, 2 μL of (5×) agonist was added to the designated wells, followed by 8 μL of col cell suspension. Two controls were run during the experiment to establish basal cAMP formation and […] cAMP with the use of 20 μM forskolin. Cells were covered with a clear plastic film and incubated at 37° C. for 15 mins. During the 15 minutes incubation a 4:1 solution of lysis buffer to dye was prepared individually. After the 15 minute incubation 5 μL of lysis buffer/cAMP-d2 (acceptor) and 5 μL of lysis buffer/monocolonal anti-cAMP Eu3^+ cryptate (donor) were added to all wells. Once added, the plate was sealed, covered with aluminum foil, and incubated at room temperature for 30 mins. After the allotted time cells were read using Flexstation3 and with λex 314 nm and λem 665 nm/λem 620. Antagonism assay format varied slightly. […] To the plate, 2 μL of (5×) antagonist were added dose wise followed by the addition of 6 μL of cold cell suspension to all wells. Controls from the agonism assay remained the same in the antagonism assay. Cells and antagonists were incubated for 20 minutes at 37° C. […] Similar to the agonism assay a 4:1 ratio of lysis buffer to donor/acceptor were prepared. Following the previous incubation period, 5 μL of lysis buffer/cAMP-d2 (acceptor) and 5 μL of lysis buffer/monocolonal anti-cAMP Eu3^+ cryptate (donor) were added to all wells. Cells were allowed to equilibrate at room temperature for 30 minutes before being read at λex 314 nm and λem 665 nm/λem 620.
# as §1
# ERα = molecular target: T3, ERα (Homo sapiens, UniProt P03372); experiment: ERα PolarScreen fluorescence polarization competitor assay; assay type: binding; details: duplicate
# T3 construct: purchased Invitrogen (Carlsbad, CA)
# T3 sequence (P03372 1-595): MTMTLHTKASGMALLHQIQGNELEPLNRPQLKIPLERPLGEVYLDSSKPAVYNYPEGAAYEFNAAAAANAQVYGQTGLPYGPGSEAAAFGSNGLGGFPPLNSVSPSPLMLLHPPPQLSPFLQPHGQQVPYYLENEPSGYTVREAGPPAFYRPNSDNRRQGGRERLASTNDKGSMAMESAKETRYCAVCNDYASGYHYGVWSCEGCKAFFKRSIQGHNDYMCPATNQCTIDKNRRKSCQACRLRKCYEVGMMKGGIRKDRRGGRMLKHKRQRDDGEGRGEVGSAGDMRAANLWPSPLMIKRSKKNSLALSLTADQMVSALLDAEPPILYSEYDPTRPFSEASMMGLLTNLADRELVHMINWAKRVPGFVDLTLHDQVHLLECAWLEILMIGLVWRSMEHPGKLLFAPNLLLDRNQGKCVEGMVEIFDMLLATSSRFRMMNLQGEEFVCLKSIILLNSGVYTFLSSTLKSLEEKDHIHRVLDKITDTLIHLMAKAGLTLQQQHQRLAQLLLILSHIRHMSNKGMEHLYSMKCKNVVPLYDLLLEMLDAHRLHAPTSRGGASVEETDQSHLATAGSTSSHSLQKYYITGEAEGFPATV
# Experimental: (§2) FIGS. 3A & 3B show fluorescence polarization studies performed on classical estrogen receptors, ERα and ERβ, to determine off-target binding. Studies were performed in duplicate. […] Overall, it appears that compound 1 binds greater to ERβ than ERα and compound 2 binds to ERα but not ERβ.
# (§3) The ERα and ERβ PolarScreen™ Competitor Assays by Invitrogen (Carlsbad, CA) were purchased and utilized to determine binding to the classical nuclear esetrogen recetors, ERα and ERβ. The concentrations of the ERα and ERβ enzyme varied between the two assays. A 4× sample of ERα was prepared for a final concentration of 75 nM. Conversely, a 4× sample of ERβ was prepared for a final concentration of 23 nM within the assay. For both ERα and ERβ a 4× aliquot of Fluoromone was prepared for a final assay concentration of 4.5 nM. Despite the differences in concentration of ERα and ERβ, the binding assay protocol for the two different enzymes remained the same. Drug dilutions were prepared for a 2× dilution in the ER specific buffer that was provided within the assay kit. In addition to the drug dilutions a 2× aliquot of Fluoromone was prepared by adding 10 uL of 4× with 10 uL of ER specific buffer. A 2× dilution of enzyme and fluorophore was achieved by adding equal portions of each to each other. […] The plate was incubated at RT for 2 hours before being read with λex 485 nm and λem 535 nm.
# ERβ = molecular target: T4, ERβ (Homo sapiens, UniProt Q92731); experiment: ERβ PolarScreen fluorescence polarization competitor assay; assay type: binding; details: duplicate
# T4 construct: purchased Invitrogen (Carlsbad, CA)
# Experimental: as §2, §3
# T4 sequence (Q92731 whole entry): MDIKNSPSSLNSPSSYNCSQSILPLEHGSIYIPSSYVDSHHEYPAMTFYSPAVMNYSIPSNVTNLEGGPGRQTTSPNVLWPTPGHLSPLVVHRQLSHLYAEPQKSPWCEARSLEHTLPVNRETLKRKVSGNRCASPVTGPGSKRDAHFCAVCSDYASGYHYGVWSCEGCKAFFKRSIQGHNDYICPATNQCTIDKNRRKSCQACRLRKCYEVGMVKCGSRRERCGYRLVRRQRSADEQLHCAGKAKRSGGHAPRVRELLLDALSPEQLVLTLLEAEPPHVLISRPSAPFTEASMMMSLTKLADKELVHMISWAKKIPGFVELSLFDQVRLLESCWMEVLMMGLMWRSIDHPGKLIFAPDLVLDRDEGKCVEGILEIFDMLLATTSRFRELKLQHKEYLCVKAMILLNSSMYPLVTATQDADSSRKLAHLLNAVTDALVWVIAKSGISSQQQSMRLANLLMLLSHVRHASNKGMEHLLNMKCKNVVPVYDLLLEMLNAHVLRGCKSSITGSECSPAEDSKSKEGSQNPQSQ
# T1 sequence (Q99527 whole entry): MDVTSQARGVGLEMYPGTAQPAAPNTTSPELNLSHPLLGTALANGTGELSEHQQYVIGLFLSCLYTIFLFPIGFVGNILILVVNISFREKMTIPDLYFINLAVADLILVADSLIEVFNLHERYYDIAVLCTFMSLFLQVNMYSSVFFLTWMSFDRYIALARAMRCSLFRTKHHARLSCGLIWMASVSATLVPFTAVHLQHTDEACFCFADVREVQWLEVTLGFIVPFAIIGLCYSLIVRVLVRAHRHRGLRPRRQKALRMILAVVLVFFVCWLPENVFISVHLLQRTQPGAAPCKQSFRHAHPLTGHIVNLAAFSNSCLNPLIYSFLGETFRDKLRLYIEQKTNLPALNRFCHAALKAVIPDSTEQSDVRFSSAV
# T2 sequence (Q99527 whole entry): as above
Compound,activation of adenylate cyclase and cAMP formation when challenged against G-36 (GPER [1]),change in calcium efflux in response to G-36 (GPER [2]),calcium signal when antagonized with G-36 (GPER [2]),"calcium compared to the vehicle control, no siRNA (GPER [4])",EC50 [5],EC50 [6],neurite outgrowth with GPER antagonist G-15 [3],neurite outgrowth [3],binding to ERα (ERα),binding to ERβ (ERβ)
CC(C)c1ccc(NCc2ccoc2)c(C2CCCCC2)c1 [Compound 2],statistically significant reduction,significant increase,reduced to basal response,no statically significant difference,699 ± 85 nM,1190 nM,reduction in signal,statistically significant increase,exhibit binding; also recorded: significant binding,exhibit binding; also recorded: binding trend for compound 2 was less consistent
CC(C)c1ccc(NCc2ccoc2)c(C2CCCCC2)c1 [Compound 26],,,,,,,significantly diminished,statistically significant increase,,
CCOCc1ccc(CNc2ccc(C(C)C)cc2C2CCCCC2)o1 [Compound 37],,,,,,,significantly diminished,statistically significant increase,,
"CC(=O)c1ccc2c(c1)C1C=CCC1C(c1cc3c(cc1Br)OCO3)N2 (centres unmarked) [Compound G-1, reference compound]",,,,,,,reduction in signal,statistically significant increase,,
COCc1ccc(CNc2ccc(C(C)C)cc2C2CCCCC2)o1 [Compound 7],,statistically significant decrease,reduced to basal response,,60.1 ± 18.2 nM,830 ± 273 nM,,,,
CCOCc1ccc(CNc2ccc(C(C)C)cc2C2CCCCC2)o1 [Compound 5],,statistically significant decrease,reduced to basal response,,50.8 ± 5.81 nM,389 ± 61.6 nM,reduction in signal,statistically significant increase,,
COc1ccc(CNc2ccc(C(C)C)cc2C2CCCCC2)cn1 [Compound 6],,,,,52.1 ± 12.1 nM,1250 ± 304 nM,,,,

# Now from value to compound, other results behind:
activation of adenylate cyclase and cAMP formation when challenged against G-36 (GPER [1]),change in calcium efflux in response to G-36 (GPER [2]),calcium signal when antagonized with G-36 (GPER [2]),"calcium compared to the vehicle control, no siRNA (GPER [4])",EC50 [5],EC50 [6],Compound,neurite outgrowth with GPER antagonist G-15 [3],neurite outgrowth [3],binding to ERα (ERα),binding to ERβ (ERβ)
,significant reduction,,,94.4 ± 11.8 nM,948 ± 272 nM,CC(C)c1ccc(NCc2ccc(C3OCCO3)o2)c(C2CCCCC2)c1 [Compound 3],,,,
statistically significant reduction,significant increase,,no statically significant difference,1300 ± 322 nM,1590 nM,CC(C)c1ccc(NCc2ccc(CO)o2)c(C2CCCCC2)c1 [Compound 1],,,exhibit binding; also recorded: significant binding,exhibit binding; also recorded: appeared to show binding
,significant reduction,,,38.7 ± 12.9 nM,290 ± 58 nM,CC(C)c1ccc(NCc2ccc(C3CCCCO3)o2)c(C2CCCCC2)c1 (centres unmarked) [Compound 4],,,,
